Results from DBAASP.
Values after ≈ are worked out from the molar mass of the structure shown. Blank lines part the entries; values can stand above or below the compound they belong to.

Key:
Test in all cases: ≥ marks a high value that may be exact or a test limit, other limits are often not marked, values filed in µg/mL are converted to µM
Escherichia coli BL21 = test system: Escherichia coli BL21
[1] = test system: Pseudomonas aeruginosa PAO1
[2] = test system: Streptococcus pyogenes M1T1 5448
[3] = test system: Staphylococcus epidermidis ATCC 51625
[4] = test system: Streptococcus pneumoniae ATCC 49619
[5] = test system: Acinetobacter baumannii ATCC 17978D-5
[6] = test system: Enterococcus faecium ATCC 700221
[7] = test system: Pseudomonas aeruginosa ATCC 27853
[8] = test system: Staphylococcus aureus ATCC 33591
[9] = test system: Klebsiella aerogenes ATCC 13048
[10] = test system: Pseudomonas aeruginosa ATCC 19660
[11] = test system: Streptococcus mutans ATCC 25175
[12] = test system: Staphylococcus aureus ATCC 12600
[13] = test system: Escherichia coli ATCC 25922
[14] = test system: Staphylococcus epidermidis ATCC 12228
Streptococcus agalactiae = test system: Streptococcus agalactiae
Staphylococcus aureus = test system: Staphylococcus aureus
[15] = test system: Salmonella enterica subsp. enterica serovar Typhimurium ATCC 14028
[16] = test system: Enterococcus faecalis ATCC 29212
[17] = test system: Staphylococcus aureus ATCC 43300
[18] = test system: Staphylococcus aureus ATCC 29213
[19] = test system: Salmonella enterica subsp. enterica serovar Typhimurium C77-31
Escherichia coli UB1005 = test system: Escherichia coli UB1005
[20] = test system: Salmonella enterica subsp. enterica serovar Choleraesuis CVCC 503
[21] = test system: Salmonella enterica subsp. enterica serovar Pullorum C79-13
Escherichia coli 078 = test system: Escherichia coli 078
Escherichia coli K88 = test system: Escherichia coli K88
[22] = test system: Staphylococcus aureus ATCC 25923
Escherichia coli K99 = test system: Escherichia coli K99
[23] = test system: Bacillus subtilis CMCC 63501
[24] = test system: Achromobacter xylosoxidans
[25] = test system: Stenotrophomonas maltophilia
Pseudomonas aeruginosa = test system: Pseudomonas aeruginosa

SMILES: CC[C@H](C)[C@H](NC(=O)[C@H](Cc1ccccc1)NC(=O)[C@H](C)NC(=O)[C@H](CCCCN)NC(=O)[C@H](CCCCN)NC(=O)[C@H](Cc1c[nH]c2ccccc12)NC(=O)[C@H](CCCN=C(N)N)NC(=O)[C@H](CCCCN)NC(=O)[C@H](CCCN=C(N)N)NC(=O)[C@H](CC(C)C)NC(=O)[C@H](CCC(=O)O)NC(=O)[C@H](CCC(=O)O)NC(=O)[C@H](CC(C)C)NC(=O)[C@H](CC(C)C)NC(=O)[C@H](Cc1ccc(O)cc1)NC(=O)[C@H](CCCCN)NC(=O)[C@@H](NC(=O)[C@H](CC(C)C)NC(=O)[C@H](C)NC(=O)[C@H](CCC(N)=O)NC(=O)[C@H](CCCN=C(N)N)NC(=O)CNC(=O)[C@H](C)N)[C@@H](C)O)C(=O)N[C@@H](C)C(=O)N[C@@H](Cc1c[nH]c2ccccc12)C(=O)O [AGRQALTKYLLEELRKRWKKAFIAW]
- MIC (Escherichia coli BL21): 1 µM (≈ 3.08 µg/mL)
- MIC [1]: 64 µM (≈ 197 µg/mL)
- MIC [2]: 2 µM (≈ 6.15 µg/mL)

SMILES: C[C@H](NC(=O)[C@H](Cc1ccccc1)NC(=O)[C@H](C)NC(=O)[C@@H](N)Cc1ccccc1)C(=O)N[C@@H](Cc1ccccc1)C(=O)N[C@@H](CCCCN)C(=O)N[C@@H](C)C(=O)N[C@@H](Cc1ccccc1)C(=O)N[C@@H](CCCCN)C(=O)N[C@@H](CCCCN)C(=O)N[C@@H](C)C(=O)N[C@@H](Cc1ccccc1)C(=O)N[C@@H](CCCCN)C(=O)N[C@@H](CCCCN)C(=O)N[C@@H](Cc1ccccc1)C(=O)N[C@@H](CCCCN)C(=O)N[C@@H](CCCCN)C(=O)N[C@@H](C)C(=O)N[C@@H](Cc1ccccc1)C(=O)N[C@@H](CCCCN)C(=O)N[C@@H](CCCCN)C(=O)N[C@@H](C)C(=O)N[C@@H](Cc1ccccc1)C(=O)NCC(=O)N1CCC[C@H]1C(=O)N[C@@H](CS)C(=O)O [FAFAFKAFKKAFKKFKKAFKKAFGPC]
- MIC [3]: 21.1 µM (≈ 64 µg/mL)
- MIC [4]: 21.1 µM (≈ 64 µg/mL)
- MIC [5]: 21.1 µM (≈ 64 µg/mL)
- MIC [6]: 21.1 µM (≈ 64 µg/mL)
- MIC [7]: > 21.1 µM
- MIC [8]: 21.1 µM (≈ 64 µg/mL)
- MIC [9]: 21.1 µM (≈ 64 µg/mL)
- MIC [10]: 21.1 µM (≈ 64 µg/mL)

SMILES: CC[C@H](C)[C@H](NC(=O)[C@H](C)NC(=O)CNC(=O)[C@H](Cc1ccccc1)NC(=O)[C@H](CC(C)C)NC(=O)CN)C(=O)N[C@@H](C)C(=O)NCC(=O)N[C@@H](Cc1ccccc1)C(=O)N[C@H](C(=O)N[C@@H](CCCCN)C(=O)NCC(=O)NCC(=O)N[C@@H](Cc1c[nH]c2ccccc12)C(=O)N1CCC[C@H]1C(=O)NCC(=O)N[C@@H](CC(C)C)C(=O)N[C@H](C(=O)N[C@@H](CCCCN)C(=O)NCC(N)=O)C(C)C)[C@@H](C)CC [GLFGAIAGFIKGGWPGLVKG]
- MIC [11]: 11.3 µM (≈ 22 µg/mL)
- MIC [12]: 16 µM (≈ 31.1 µg/mL)
- MIC [13]: 16 µM (≈ 31.1 µg/mL)
- MIC [7]: > 64.3 µM

Further lines, with some results ahead:

- MIC [3]: 1.76 µM (≈ 4 µg/mL)
- MIC [4]: 28.2 µM (≈ 64 µg/mL)
- MIC [5]: 28.2 µM (≈ 64 µg/mL)
- MIC [6]: 28.2 µM (≈ 64 µg/mL)
- MIC [7]: > 28.2 µM
- MIC [8]: 28.2 µM (≈ 64 µg/mL)
- MIC [9]: 28.2 µM (≈ 64 µg/mL)
- MIC [10]: 28.2 µM (≈ 64 µg/mL)
SMILES: CC[C@H](C)[C@H](NC(=O)[C@H](CCCCN)NC(=O)[C@H](C)NC(=O)[C@H](CCCN=C(N)N)NC(=O)[C@H](CC(C)C)NC(=O)[C@H](CCCN=C(N)N)NC(=O)[C@@H](NC(=O)[C@H](CCCCN)NC(=O)[C@@H](NC(=O)[C@H](CCCCN)NC(=O)[C@H](C)NC(=O)[C@H](CCCN=C(N)N)NC(=O)[C@H](CC(C)C)NC(=O)[C@H](CCCCN)NC(=O)[C@H](Cc1ccccc1)NC(=O)CNC(=O)[C@@H](N)CCSC)[C@@H](C)CC)C(C)C)C(=O)N[C@@H](CCCCN)C(=O)N[C@@H](CC(C)C)C(=O)O [MGFKLRAKIKVRLRAKIKL]

- MIC [14]: > 64 µM
- MIC (Streptococcus agalactiae): ≥ 64 µM
- MIC (Staphylococcus aureus): > 64 µM
- MIC [15]: > 64 µM
- MIC [16]: > 64 µM
- MIC [17]: > 64 µM
- MIC [18]: > 64 µM
- MIC [19]: ≥ 64 µM
- MIC [13]: > 64 µM
- MIC (Escherichia coli UB1005): ≥ 64 µM
- MIC [21]: ≥ 64 µM
SMILES: CC(C)[C@H](N)C(=O)N[C@@H](CS)C(=O)N[C@@H](CCCN=C(N)N)C(=O)N[C@@H](CCCCN)C(=O)N1CCC[C@H]1C(=O)N[C@H](C(=O)N[C@H](C(=O)N[C@@H](CS)C(=O)N[C@@H](CCCN=C(N)N)C(=O)N[C@@H](CCCCN)C(=O)N1CCC[C@H]1C(=O)N[C@H](C(N)=O)C(C)C)C(C)C)C(C)C [VCRKPVVCRKPV]
- MIC [20]: ≥ 64 µM

- MIC [14]: > 64 µM
- MIC (Streptococcus agalactiae): ≥ 64 µM
- MIC (Staphylococcus aureus): > 64 µM
- MIC [15]: 32 µM (≈ 53.3 µg/mL)
- MIC [16]: > 64 µM
- MIC [17]: > 64 µM
- MIC [18]: > 64 µM
- MIC [19]: ≥ 32 µM
- MIC [13]: 16 µM (≈ 26.6 µg/mL)
- MIC (Escherichia coli UB1005): 16 µM (≈ 26.6 µg/mL)
- MIC [21]: ≥ 64 µM
SMILES: CC[C@H](C)[C@H](N)C(=O)N[C@H](C(=O)N[C@@H](CS)C(=O)N[C@@H](CCCN=C(N)N)C(=O)N[C@@H](CCCCN)C(=O)N1CCC[C@H]1C(=O)N[C@H](C(=O)N[C@H](C(=O)N[C@@H](CS)C(=O)N[C@@H](CCCN=C(N)N)C(=O)N[C@@H](CCCCN)C(=O)N1CCC[C@H]1C(=O)N[C@H](C(=O)N[C@H](C(N)=O)[C@@H](C)CC)[C@@H](C)CC)[C@@H](C)CC)[C@@H](C)CC)[C@@H](C)CC [IICRKPIICRKPII]
- MIC [20]: ≥ 64 µM

- MIC (Escherichia coli 078): 4 µM (≈ 6.39 µg/mL)
- MIC (Escherichia coli K88): 2 µM (≈ 3.19 µg/mL)
- MIC [22]: 16 µM (≈ 25.6 µg/mL)
- MIC (Escherichia coli K99): 4 µM (≈ 6.39 µg/mL)
- MIC [14]: 16 µM (≈ 25.6 µg/mL)
- MIC [15]: 8 µM (≈ 12.8 µg/mL)
- MIC [16]: 4 µM (≈ 6.39 µg/mL)
- MIC [18]: 8 µM (≈ 12.8 µg/mL)
- MIC [19]: 16 µM (≈ 25.6 µg/mL)
- MIC [13]: 16 µM (≈ 25.6 µg/mL)
- MIC (Escherichia coli UB1005): 16 µM (≈ 25.6 µg/mL)
- MIC [21]: 2 µM (≈ 3.19 µg/mL)
- MIC [23]: 2 µM (≈ 3.19 µg/mL)
SMILES: CC[C@H](C)[C@H](NC(=O)[C@H](Cc1c[nH]c2ccccc12)NC(=O)[C@H](CCCCN)NC(=O)[C@H](CC(C)C)NC(=O)[C@@H](NC(=O)[C@H](Cc1c[nH]c2ccccc12)NC(=O)CNC(=O)[C@@H](NC(=O)[C@H](CCCCN)NC(=O)[C@H](Cc1c[nH]c2ccccc12)NC(=O)[C@H](CC(C)C)NC(=O)[C@@H](N)CCCN=C(N)N)[C@@H](C)CC)C(C)C)C(N)=O [RLWKIGWVLKWI]

- MIC [24]: 2.01 µM (≈ 5.66 µg/mL)
- MIC [25]: 4.03 µM (≈ 11.3 µg/mL)
- MIC (Pseudomonas aeruginosa): 1.42 µM (≈ 4 µg/mL)
SMILES: CC[C@H](C)[C@H](NC(=O)[C@H](CCCCN)NC(=O)[C@H](CCC(N)=O)NC(=O)CNC(=O)[C@@H](NC(=O)[C@H](CCCCN)NC(=O)[C@H](CCCCN)NC(=O)[C@H](CC(C)C)NC(=O)[C@H](CCCCN)NC(=O)[C@H](CCC(=O)O)NC(=O)[C@H](CCCCN)NC(=O)[C@@H](NC(=O)[C@H](CCCCN)NC(=O)[C@H](CC(N)=O)NC(=O)[C@H](CCCN=C(N)N)NC(=O)[C@H](Cc1ccccc1)NC(=O)[C@H](CCCCN)NC(=O)[C@H](CCCN=C(N)N)NC(=O)[C@H](CC(C)C)NC(=O)[C@H](CCCN=C(N)N)NC(=O)[C@H](CCCCN)NC(=O)[C@@H](N)CCCN=C(N)N)[C@@H](C)CC)[C@@H](C)CC)C(=O)O [RKRLRKFRNKIKEKLKKIGQKI]
